Source: patent US11098033B2, “Ku inhibitors and their use” (INDIANA UNIVERSITY RESEARCH AND TECHNOLOGY CORPORATION, priority 2016, dated 2021)
“And” between values parts separate entries of the source, which are not always exact repeats. Equal values may be shown once. Read-outs that look alike come from different tables or passages of the source.

Tests used:
[1] = biological target: T1, Recombinant human Ku heterodimer (Homo sapiens, UniProt P12956+P13010); assay: Ku-DNA binding assay
T1 construct: made in house; host or cells: insect cells infected with recombinant baculovirus
T1 sequence (P12956 whole entry): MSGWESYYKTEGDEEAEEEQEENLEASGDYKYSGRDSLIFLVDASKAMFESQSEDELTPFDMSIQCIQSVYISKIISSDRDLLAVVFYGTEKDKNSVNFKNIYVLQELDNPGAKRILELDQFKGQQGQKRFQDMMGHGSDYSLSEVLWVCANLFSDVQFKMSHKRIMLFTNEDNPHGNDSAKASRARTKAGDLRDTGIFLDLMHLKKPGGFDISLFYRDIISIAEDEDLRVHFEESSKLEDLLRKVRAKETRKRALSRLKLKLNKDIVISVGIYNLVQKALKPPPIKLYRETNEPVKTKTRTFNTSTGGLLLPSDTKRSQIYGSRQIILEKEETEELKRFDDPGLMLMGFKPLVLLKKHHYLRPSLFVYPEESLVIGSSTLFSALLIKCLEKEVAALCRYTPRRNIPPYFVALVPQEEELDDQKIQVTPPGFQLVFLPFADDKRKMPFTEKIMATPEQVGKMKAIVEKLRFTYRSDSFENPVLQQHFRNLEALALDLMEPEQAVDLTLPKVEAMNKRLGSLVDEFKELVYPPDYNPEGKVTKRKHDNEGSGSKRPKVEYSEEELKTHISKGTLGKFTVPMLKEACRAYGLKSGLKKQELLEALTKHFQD
T1 sequence (P13010 whole entry): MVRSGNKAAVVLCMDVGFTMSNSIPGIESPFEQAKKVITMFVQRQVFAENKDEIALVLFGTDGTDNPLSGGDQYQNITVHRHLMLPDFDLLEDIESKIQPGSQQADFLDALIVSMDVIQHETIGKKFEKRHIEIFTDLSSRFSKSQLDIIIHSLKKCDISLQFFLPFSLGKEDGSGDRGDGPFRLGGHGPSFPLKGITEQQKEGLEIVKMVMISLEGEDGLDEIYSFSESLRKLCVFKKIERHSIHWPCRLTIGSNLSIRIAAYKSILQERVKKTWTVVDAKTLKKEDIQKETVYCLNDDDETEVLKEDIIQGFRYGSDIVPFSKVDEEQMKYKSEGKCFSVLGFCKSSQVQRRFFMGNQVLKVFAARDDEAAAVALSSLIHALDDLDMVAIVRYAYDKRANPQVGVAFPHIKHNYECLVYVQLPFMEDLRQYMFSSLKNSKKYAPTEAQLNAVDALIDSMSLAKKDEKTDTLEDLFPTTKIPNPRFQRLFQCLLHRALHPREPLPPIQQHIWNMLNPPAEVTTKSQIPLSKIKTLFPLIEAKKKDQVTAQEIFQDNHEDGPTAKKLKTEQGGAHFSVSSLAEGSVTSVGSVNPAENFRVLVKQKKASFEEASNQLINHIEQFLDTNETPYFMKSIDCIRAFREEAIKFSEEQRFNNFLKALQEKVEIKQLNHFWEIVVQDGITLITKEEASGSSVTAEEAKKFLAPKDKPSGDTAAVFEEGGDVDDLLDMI
Description: Ku is a DNA end-binding protein that is essential for the repair of DNA double strand breaks via the NHEJ pathway. The mechanism of DNA binding by Ku is via a toroid structure that encircles double-stranded DNA from a terminus.

[2] = test system: NHEJ activity in H460 cells; assay: Host cell reactivation assay of NHEJ mediated re-circularization of a linearized GFP plasmid; assay type: cell-based
Description: Disruption of Ku-DNA binding should result in inhibition of NHEJ activity, and to test this inhibition we will employ a host cell reactivation assay. This assay utilizes a linearized plasmid encoding a GFP gene that is transfected into the cell and expressed upon NHEJ mediated re-circularization of the plasmid (Sears, CA., 2012 and Woods, D., 2015). Co-transfection of a circular RFP plasmid accounts for differences in transfection efficiency, and NHEJ mediated repair of the GFP plasmid can be quantified by assessing the ratio of green: red cells. This assay will be used to assess the Ku inhibitor compounds in H460 and HEK-293 cells, and the data obtained from these experiments will allow us to determine the sensitivity of the chemical compounds and effect of Ku inhibition on NHEJ activity. As this is a cellular assay, we will also utilize this assay to do a series of time course experiments to determine the optimal time to deliver the inhibitor to cells in order to achieve maximum inhibition of NHEJ activity.

[3] = test system: NHEJ end joining in cell free extract from HEK 293; assay: In vitro NHEJ (end joining) assay with cell free extract; assay type: biochemical; settings: linearized plasmid DNA (3 kbp), HEK 293 cell free extract pre-incubated with inhibitor, ATP; read-out: IC50 of inhibition of end joining
Protocol: Radiolabeled linearized DNA was incubated with whole cell extracts with increasing amounts of inhibitor NG-02-132.
A linearized plasmid DNA (3 kbp) is incubated with a cell free extract prepared from a NHEJ competent cell (HEK 293) and ATP. The results presented in FIG. 8 show the substrate alone in lane 1 and the degree of end joining control reactions as evidenced by the formation of plasmid multimers.

[4] = test system: H460 non-small cell lung cancer cells, EMX1 locus; assay: Crispr/Cas9 mediated gene insertion at the EMX1 locus; assay type: cell-based
Description: To assess the effect of Ku inhibitors on genome engineering efficiency we designed an assay to quantify the recombination efficiency of a Crispr/Cas9 mediated gene insertion event. A donor insert of 2.2 kbp encoding puromycin resistance and a GFP gene was flanked by 800 bp homology arms directing the insert to the EMX1 locus. A guide RNA directing the Cas9 nuclease to the EMX1 gene was purchased and co-transfected with the donor construct and Cas9 expressing plasmid in H460 non-small cell lung cancer cells that were either treated with vehicle or 20 uM 205. 24 hours later, cells were placed under selection with puromycin for 5 days and plated in 96-well plates for single cell cloning. Clones were expanded, genomic DNA isolated and location specific PCR analysis was performed to assess accurate gene insertion at the EMX1 locus.

[5] = Table 2, synthesized derivatives, several values in a cell = separate determinations, read-out: IC50
[6] = IC50 (concentration that inhibits 50% of the binding activity), titration into Ku-DNA binding reactions (FIG. 1, FIG. 2)
[7] = Table 1, purchased second generation inhibitors, several values in a cell = separate determinations, read-out: IC50

| Molecule | IC50 [1, 7] | also measured |
| --- | --- | --- |
| COc1cccc(NC(=O)c2cc(-c3ccc(/C=C4\C(=O)N(c5cccc(C(=O)O)c5)N=C4C)o3)ccc2Cl)c1 [NG-01-68/02-140/03-180, (Z)-3-(4-((5-(4-Chloro-3-((3-methoxyphenyl)carbamoyl)phenyl)furan-2-yl)methylene)-3-methyl-5-oxo-4,5-dihydro-1H-pyrazol-1-yl)benzoic acid] |  | IC50 [1, 5]: 6 µM and 15 µM and 4 µM (2×); NHEJ catalyzed repair events ([2]; H460 cells preincubated 2 hours prior to transfection of the reporters, measured 48 hours post transfection, without compound 26%, preliminary data): 17%; reduction of NHEJ catalyzed repair events ([2]; H460 cells, 2 hours preincubation, 48 hours post transfection, from 26% to 17%): 35% |
| COc1cccc(NC(=O)c2cc(-c3ccc(CC4C(=O)N(c5cccc(C(=O)O)c5)N=C4C)o3)ccc2Cl)c1 (stereo not drawn) [NG-02-132/ NG-02-149, 3-(4-((5-(4-Chloro-3-((3-methoxyphenyl)carbamoyl)phenyl)furan-2-yl)methyl)-3-methyl-5-oxo-4,5-dihydro-1H-pyrazol-1-yl)benzoic acid] |  | IC50 [1, 5]: 1 µM (2×) and 4 µM and 6 µM; IC50 [3]: ~15 µM |
| COc1cccc(NC(=O)c2cc(-c3ccc(CC4C(=O)N(c5cccc(-c6nnn[nH]6)c5)N=C4C)o3)ccc2Cl)c1 (stereo not drawn) [NG-03-205, 5-(5-((1-(3-(1H-Tetrazol-5-yl)phenyl)-3-methyl-5-oxo-4,5-dihydro-1H-pyrazol-4-yl)methyl)furan-2-yl)-2-chloro-N-(3-methoxyphenyl)benzamide] |  | IC50 [1, 5]: 13 µM; Efficiency ([4]; +Inhibitor (20 uM), accurate gene insertion at EMX1 locus, −Inhibitor 14%): 80%; In/Out+ ([4]; +Inhibitor (20 uM), clones positive in location specific PCR, −Inhibitor 4): 4; Clones ([4]; +Inhibitor (20 uM), puromycin selection 5 days, single cell cloning, −Inhibitor 28): 5; increase in precise genome insertion efficiency ([4]; H460 cells, 20 uM, versus vehicle): greater than 6 fold |
| COc1cccc(NC(=O)c2cc(-c3ccc(/C=C4\C(=O)N(c5ccc(C(=O)O)cc5)N=C4C)s3)ccc2Cl)c1 [NG-03-236, (Z)-4-(4-((5-(4-Chloro-3-((3-methoxyphenyl)carbamoyl)phenyl)thiophen-2-yl)methylene)-3-methyl-5-oxo-4,5-dihydro-1H-pyrazol-1-yl)benzoic acid] |  | IC50 [1, 5]: 10 µM |
| COc1cccc(NC(=O)c2cc(-c3ccc(CC4C(=O)N(c5ccc(C(=O)O)cc5)N=C4C)s3)ccc2Cl)c1 (stereo not drawn) [NG-03-238, 4-(4-((5-(4-Chloro-3-((3-methoxyphenyl)carbamoyl)phenyl)thiophen-2-yl)methyl)-3-methyl-5-oxo-4,5-dihydro-1H-pyrazol-1-yl)benzoic acid] |  | IC50 [1, 5]: 14 µM |
| CC1=NN(c2cccc(C(=O)O)c2)C(=O)/C1=C\c1ccc(-c2ccc(Cl)c(C(=O)NCc3ccccc3)c2)o1 [NG-03-270, (Z)-3-(4-((5-(3-(Benzylcarbamoyl)-4-chlorophenyl)furan-2-yl)methylene)-3-methyl-5-oxo-4,5-dihydro-1H-pyrazol-1-yl)benzoic acid] |  | IC50 [1, 5]: 10 µM |
| CC1=NN(c2cccc(C(=O)O)c2)C(=O)/C1=C\c1ccc(-c2ccc(Cl)c(C(=O)O)c2)o1 [X80, (Z)-5-(5-((1-(3-Carboxyphenyl)-3-methyl-5-oxo-1H-pyrazol-4(5H)-ylidene)methyl)furan-2-yl)-2-chlorobenzoic acid] |  | IC50 [1, 6]: ~75 µM |
| CC1=NN(c2ccc(Cl)c(C(=O)O)c2)C(=O)/C1=C\c1ccc(-c2ccc([N+](=O)[O-])cc2Br)o1 [compound 0277, reference compound] | 21 µM and 19 µM |  |
| CC1=NN(c2cccc(C(=O)O)c2)C(=O)/C1=C\c1ccc(-c2cc([N+](=O)[O-])ccc2C)o1 [compound 0302, reference compound] | 13 µM and 7 µM and 9 µM |  |
| CCCCOC(=O)c1cc(-c2ccc(/C=C3\C(=O)N(c4ccc(Cl)c(C(=O)O)c4)N=C3C)o2)ccc1Cl [compound 0530, reference compound] | 5.6 µM | IC50 [1, 6]: ~5 µM |
| CC1=NN(c2cccc(C(=O)O)c2)C(=O)/C1=C\c1ccc(-c2cccc(C(=O)O)c2)o1 [compound 0803, reference compound] | 65 µM |  |
| COc1cc([N+](=O)[O-])ccc1-c1ccc(/C=C2\C(=O)N(c3cccc(C(=O)O)c3)N=C2C)o1 [compound 0814, reference compound] | 190 µM |  |
| CC1=NN(c2cccc(C(=O)O)c2)C(=O)/C1=C\c1ccc(-c2ccccc2C(=O)O)o1 [compound 0949, reference compound] | 91 µM |  |
| (Z)-2-chloro-5-(54(1-(3-cyanophenyl)-3-methyl-5-oxo-1,5-dihydro-4H-pyrazol-4-ylidene)methyl)furan-2-yl)-N-(3-methoxyphenyl)benzamide [NG-03-193] |  | IC50 [1, 5]: 25 µM |

Second part, led by results:

| IC50 [1, 7] | Molecule | also measured |
| --- | --- | --- |
| 21 µM and 7 µM | CC1=NN(c2cccc(C(=O)O)c2)C(=O)/C1=C\c1ccc(-c2cc([N+](=O)[O-])ccc2O)o1 [compound 1564, reference compound] |  |
| 2.9 µM | CC1=NN(c2cccc(C(=O)O)c2)C(=O)/C1=C\c1ccc(-c2ccc(Cl)c(C(=O)OCc3ccccc3Cl)c2)o1 [compound 2249, reference compound] |  |
| 150 µM | CC1=NN(c2cccc(C(=O)O)c2)C(=O)/C1=C\c1ccc(-c2ccc(C(=O)O)cc2)o1 [compound 2513, reference compound] |  |
| 9.1 µM | CCOC(=O)c1cccc(-c2ccc(/C=C3\C(=O)N(c4cccc(C(=O)O)c4)N=C3C)o2)c1 [compound 2714, reference compound] |  |
| 7.6 µM and 5.7 µM | CCCOC(=O)c1cc(-c2ccc(/C=C3\C(=O)N(c4cccc(C(=O)O)c4)N=C3C)o2)ccc1Cl [compound 2727, reference compound] |  |
| 4.2 µM and 9 µM | CCOC(=O)c1cc(-c2ccc(/C=C3\C(=O)N(c4cccc(C(=O)O)c4)N=C3C)o2)ccc1Cl [compound 2733, reference compound] |  |
| 40 µM and 16 µM | COC(=O)c1cccc(-c2ccc(/C=C3\C(=O)N(c4cccc(C(=O)O)c4)N=C3C(F)(F)F)o2)c1 [compound 2777, reference compound] |  |
| 6.2 µM and 5 µM | C=CCOC(=O)c1cccc(-c2ccc(/C=C3\C(=O)N(c4ccc(Cl)c(C(=O)O)c4)N=C3C)o2)c1 [compound 2922, reference compound] |  |
| 11 µM and 3.5 µM | CC1=NN(c2cccc(C(=O)O)c2)C(=O)/C1=C\c1ccc(-c2cccc(C(=O)OC(C)C)c2)o1 [compound 3125, reference compound] |  |
| 4.3 µM and 8.1 µM | CCOC(=O)c1cccc(-c2ccc(/C=C3\C(=O)N(c4ccc(Cl)c(C(=O)O)c4)N=C3C)o2)c1 [compound 3278, reference compound] |  |
| 31 µM and 5.7 µM | CC1=NN(c2ccc(Cl)c(C(=O)O)c2)C(=O)/C1=C\c1ccc(-c2cccc(C(=O)OC(C)C)c2)o1 [compound 3315, reference compound] |  |
| 21.8 µM | CC1=NN(c2ccc(Cl)c(C(=O)O)c2)C(=O)/C1=C\c1ccc(-c2ccc3c(c2)C(=O)OC3)o1 [compound 4770, reference compound] |  |
| 16.9 µM | C#CCOC(=O)c1cccc(-c2ccc(/C=C3\C(=O)N(c4ccc(Cl)c(C(=O)O)c4)N=C3C)o2)c1 [compound 7026, reference compound] |  |
| 32 µM and 16 µM and 40 µM | CC1=NN(c2cccc(C(=O)O)c2)C(=O)/C1=C\c1ccc(-c2ccc3c(c2)C(=O)OC3)o1 [compound 7997, reference compound] |  |
